How the values were obtained:
hCA II = molecular target: T1, hCA II (Homo sapiens, UniProt P00918); assay: stopped-flow CO2 hydrase assay, hCA II; type: biochemical; settings: incubation time of 6 h, mean of three assays, read-out: KI CA II
T1 construct: made in house
Description: (§1) The newly synthesised MPCs (3 and 5a–o) were assessed for their CA inhibition activity employing the stopped-flow CO2 hydrase assay[29] for constitutional hCA (I/II) isoforms and cancer-linked hCA (IX/XII) isoforms.
(§2) The CA inhibition activity for the herein reported MPC derivatives was evaluated against the hCA isoforms I, II, IX, and XII using stopped-flow CO2 hydrase test[7]^,[33–36] (see the Supplementary Material).
(§3) Carbonic anhydrase inhibition assay
(§4) The carbonic anhydrase catalyzed CO2 hydration actions for all coumarin-based […]
(§5) Photophysics stopped-flow. The enzymes are recombinant proteins prepared in our lab. Phenol red (at a concentration of 0.2 mM) has been used as indicator, working at […]
(§6) mM Na2SO4 (for maintaining constant the ionic strength), following the initial rates of the CA-catalyzed CO2 hydration reaction for a period of 10-100 s. The CO2 concentrations ranged from 1.7 to 17 mM for the determination of the kinetic parameters and inhibition constants. For each inhibitor at least six traces of the initial 5-10% of the reaction have been used for determining the initial velocity. The uncatalyzed rates were determined in the same manner and subtracted from the total observed rates. Stock solutions of inhibitor (0.1 mM) were prepared in distilled-deionized water and dilutions up to 0.01 nM were done thereafter with the assay buffer. Inhibitor and enzyme solutions were preincubated together for 6 hrs. at room temperature prior to assay, in order to allow for the formation of the E-I complex. The inhibition constants were obtained by non-linear least-squares methods using PRISM 3 and the Cheng-Prusoff equation, and represent the mean from at least three different

hCA XII = molecular target: T2, hCA XII (Homo sapiens, UniProt O43570); assay: stopped-flow CO2 hydrase assay, hCA XII; type: biochemical; settings: for Selectivity index (SI) (KI off-target CA/KI target CA) Towards hCA XII: ratio of KI for hCA I and II relative to hCA XII; for Ki: stopped-flow, incubation time of 6 h, mean of three assays, read-out: KI CA XII
T2 construct: made in house
Description: as §1, §2, §3, §4, §5, §6

HL-60(TB) = assay: NCI single (10 µM) dose SRB screening, HL-60(TB); type: cell-based, human; settings: 10 µM single dose, Leukaemia
Description: (§7) Following NCI protocol, sixteen MPCs were screened for their potential in vitro anticancer effects against human 59 cancer cell panels including prostate, leukaemia melanoma, colon, breast, CNS, renal, NSCLC, and ovarian cancers by National Cancer Institute (USA)[30].
(§8) The antiproliferative activities of MPC 3 and MPCs 5a–o were first evaluated in a 10 µM dose assay, with SRB assay used to determine cell survival and proliferation. […] The results of the cell growth inhibitory activities for MPCs 5g and 5l towards the different treated tumour cell lines were presented as GI% and presented in Table 3.
(§9) The anticancer test was conducted using the methods of the Drug Evaluation Branch, National Cancer Institute, Bethesda, MD, using 59 human tumour cell lines derived from nine human tissues. The GI50, TGI, and LC50 dose-response parameters were calculated for each medication.

A549/ATCC = assay: NCI single (10 µM) dose SRB screening, A549/ATCC; type: cell-based, human; settings: 10 µM single dose, NSC lung cancer
Description: as §7, §8, §9

NCI-H322M = assay: NCI single (10 µM) dose SRB screening, NCI-H322M; type: cell-based, human; settings: 10 µM single dose, NSC lung cancer
Description: as §7, §8, §9

UACC-62 = assay: NCI single (10 µM) dose SRB screening, UACC-62; type: cell-based, human; settings: 10 µM single dose, UACC-62, Melanoma
Description: as §7, §8, §9

DU-145 = assay: NCI single (10 µM) dose SRB screening, DU-145; type: cell-based, human; settings: 10 µM single dose, DU-145, Prostate cancer
Description: as §7, §8, §9

T-47D = assay: NCI single (10 µM) dose SRB screening, T-47D; type: cell-based, human; settings: 10 µM single dose, Breast cancer
Description: as §7, §8, §9

SNB-19 = assay: NCI single (10 µM) dose SRB screening, SNB-19; type: cell-based, human; settings: 10 µM single dose, SNB-19, CNS cancer
Description: as §7, §8, §9

[1] = test system: fifty-nine cancer cell lines; assay: full NCI panel five dose assay, whole panel; type: cell-based; settings: five-dose (0.01–100 µM)
Description: (§10) MPC 5l was then chosen for additional biological evaluation in a five-dose (0.01–100 µM) experiment. MPC 5l's GI50, TGI, and LC50 response parameters were obtained for each of the cancer cell lines studied. TGI represents cytostatic impact, whereas GI50 values reflect the extent of growth inhibitory effect. Furthermore, the LC50 parameter is regarded as the cytotoxicity parameter for the hybrid under investigation.
as §9

K-562 = assay: NCI five dose assay, K-562; type: cell-based, human
Description: as §10, §9

RPMI-8226 = assay: NCI five dose assay, RPMI-8226; type: cell-based, human; settings: RPMI-8226, Leukaemia
Description: as §10, §9

SR = assay: NCI five dose assay, SR; type: cell-based, human; settings: Leukaemia
Description: as §10, §9

HOP-92 = assay: NCI five dose assay, HOP-92; type: cell-based, human; settings: HOP-92, NSC lung cancer
Description: as §10, §9

HCT-116 = assay: NCI five dose assay, HCT-116; type: cell-based, human; settings: HCT-116, Colon cancer
Description: as §10, §9

SW-620 = assay: NCI five dose assay, SW-620; type: cell-based, human; settings: SW-620, Colon cancer
Description: as §10, §9

U251 = assay: NCI five dose assay, U251; type: cell-based, human
Description: as §10, §9

LOX IMVI = assay: NCI five dose assay, LOX IMVI; type: cell-based, human; settings: Melanoma
Description: as §10, §9

MCF7 = assay: NCI five dose assay, MCF7; type: cell-based, human; settings: MCF7, Breast cancer
Description: as §10, §9

[2] = Homo sapiens, read-out: IC50 (the source's name)

T2 sequence (O43570 25-354): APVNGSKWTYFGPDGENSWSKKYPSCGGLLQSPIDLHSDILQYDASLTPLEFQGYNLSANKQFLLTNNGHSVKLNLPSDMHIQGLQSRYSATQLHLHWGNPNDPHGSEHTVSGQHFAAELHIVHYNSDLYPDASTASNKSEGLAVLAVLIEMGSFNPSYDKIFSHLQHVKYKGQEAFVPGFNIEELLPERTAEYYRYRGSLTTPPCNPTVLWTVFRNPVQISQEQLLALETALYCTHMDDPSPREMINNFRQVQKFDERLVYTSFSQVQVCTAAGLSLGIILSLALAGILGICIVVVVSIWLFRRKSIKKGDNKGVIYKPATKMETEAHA

For `Cc1nc(-c2cc3ccccc3oc2=O)ccc1C(=O)/C=C/c1ccc(N2CCOCC2)cc1` [Compound 5g, 3-(6-Methyl-5-[(2E)-3-[4-(morpholin-4-yl)phenyl]prop-2-enoyl]pyridin-2-yl)-2H-chromen-2-one], the Ki (hCA II) was over 100 µM, the “Selectivity index (SI) (KI off-target CA/KI target CA) Towards hCA XII” value (hCA XII) was over 55.56 and the Ki (hCA XII) was 1.8 µM. For the same molecule, the GI % (HL-60(TB)) was 61%, the GI % (A549/ATCC) was “– (Only GI % more than 20% are displayed.)” and the GI % (NCI-H322M) was “– (Only GI % more than 20% are displayed.)”. For the same molecule, the GI % (UACC-62) was 47%, the GI % (DU-145) was “– (Only GI % more than 20% are displayed.)” and the GI % (T-47D) was “– (Only GI % more than 20% are displayed.)”.

With `Cc1nc(-c2cc3ccccc3oc2=O)ccc1C(=O)/C=C/c1ccccn1` [Compound 5l, 3-(6-Methyl-5-[(2E)-3-(pyridin-2-yl)prop-2-enoyl]pyridin-2-yl)-2H-chromen-2-one] the Ki (hCA II) was over 100 µM, the “Selectivity index (SI) (KI off-target CA/KI target CA) Towards hCA XII” value (hCA XII) was over 108.70 and the Ki (hCA XII) was 0.92 µM. The GI % (HL-60(TB)) was 67%, the GI % (A549/ATCC) was 33% and the GI % (NCI-H322M) was “– (Only GI % more than 20% are displayed.)”. The GI % (SNB-19) was 28%, the GI % (UACC-62) was 28% and the GI % (DU-145) was 52%. For the same molecule, the GI % (T-47D) was 47%, the CC50 ([1]; Homo sapiens, all cancer cells, read-out: LC50 (the source's name)) was over 100 µM and the GI50 ([1]; Homo sapiens, remaining cancer cells (other than the nine of Table 4)) was over 100 µM. It also gave a TGI ([1]; all cancer cell lines) of over 100 µM, a GI50 (K-562; Homo sapiens, K562, K-562, Leukaemia) of 6.47 µM and an LC50 (K-562; Homo sapiens, K562, K-562, Leukaemia, read-out: IC50 (the source's name)) of over 100 µM. The TGI (K-562; K-562, Leukaemia) was over 100 µM, the GI50 (RPMI-8226; Homo sapiens) was 3.41 µM and the LC50 (RPMI-8226; [2]) was over 100 µM. The TGI (RPMI-8226) was over 100 µM, the GI50 (SR; Homo sapiens) was 5.3 µM and the LC50 (SR; [2]) was over 100 µM. The TGI (SR) was over 100 µM, the TGI (HOP-92) was over 100 µM and the GI50 (HOP-92; Homo sapiens) was 7.25 µM. For the same molecule, the LC50 (HOP-92; [2]) was over 100 µM, the TGI (HCT-116) was over 100 µM and the GI50 (HCT-116; Homo sapiens) was 6.34 µM. For the same molecule, the LC50 (HCT-116; [2]) was over 100 µM, the GI50 (SW-620; Homo sapiens) was 6.77 µM and the LC50 (SW-620; [2]) was over 100 µM. The TGI (SW-620) was over 100 µM, the GI50 (U251; Homo sapiens, U-251, U251, CNS cancer) was 8.49 µM and the LC50 (U251; Homo sapiens, U-251, U251, CNS cancer, read-out: IC50 (the source's name)) was over 100 µM. It also gave a TGI (U251; U251, CNS cancer) of over 100 µM, a GI50 (LOX IMVI; Homo sapiens) of 3.2 µM and an LC50 (LOX IMVI; [2]) of over 100 µM. The TGI (LOX IMVI) was over 100 µM, the GI50 (MCF7; Homo sapiens) was 3.72 µM and the LC50 (MCF7; [2]) was over 100 µM. For the same molecule, the TGI (MCF7) was over 100 µM.
